The text below walks through data of PMC3859497, “Expression and Biological Activity of the Cystine Knot Bioinsecticide PA1b (Pea Albumin 1 Subunit b)” (PLoS ONE, 2013).

No end group written: not given here.

In assay [1] the test system is Sitophilus oryzae sensitive weevil strain WAA42. Briefly: Toxicity assay on weevils, sensitive strain WAA42 (survival analysis on food pellets). The conditions noted are these: adult S. oryzae, sensitive strain WAA42, fed food pellets (wheat flour and water) incorporating peptide at 400 µg.g−1, days +/− SEM, LT50 calculated with SIMFIT. In kind it is in vivo. The procedure:
(§1) Rice weevils (Sitophilus oryzae, Coleoptera) were reared on wheat seeds at 27.5°C and 70% RH. Tests and survival analysis were performed on adults feeding on food pellets (composed of wheat flour and water) incorporating PA1b (extracted from pea seeds for control tests or produced in tobacco) at 400 µg.g^−1, as described in detail in [10]. LT50 values were calculated using the SIMFIT software (http://www.simfit.man.ac.uk). The PA1b resistant strain, ISOR3, was reared in an identical way except that the weevils were fed on pea seeds rather than on wheat seeds.

For assay [2], the system named is Sitophilus oryzae PA1b resistant strain ISOR3. Kind of assay: Toxicity assay on weevils, PA1b resistant strain ISOR3. In kind it is in vivo. The note with it: adult S. oryzae, PA1b resistant strain ISOR3, food pellets incorporating peptide at 400 µg.g−1. The procedure:
as §1

The next assay concerns Sf9 insect cells. Briefly: Viability assay on Sf9 insect cells. The note with it: Sf9 cell viability assay, nM (SEM), HPLC purified tobacco-expressed isoforms. In kind it is cell-based, Spodoptera frugiperda. The procedure: Spodoptera frugiperda Sf9 cells were grown and used for viability assays, according to [23].

With “ASCNGVCSPFEMPPCGTSACRCIPVGLFIGYCRNPSG (also: bicyclic or more (positions not given here)) [Isoform 2.2, pea PA1b isoform 2 (GenBank AJ574794), non-oxidized Met form, expressed in tobacco]”, in assay [1], the “TL50 WAA42” value is on record as 8.9+−0.6 days. Also, the “TL50 ISOR3 (mortality on resistant strain)” value (shortened to “TL50 ISOR3”) in assay [2] is reported as “no mortality”. Further, in the assay on Sf9 insect cells, the “CL50 Sf9” value was 53 (16) nM.

In the case of “ASCNGVCSPFEMoxPPCGTSACRCIPVGLVVGYCRNPSG (bicyclic or more) [Isoform 5, pea PA1b isoform (GenBank M13709) expressed in tobacco]”, the “TL50 WAA42” value in assay [1] is recorded as 9.35+−0.7 days. The “TL50 ISOR3” value in assay [2] is “no mortality”. Moreover, the “CL50 Sf9” value in the assay with Sf9 insect cells is given as 99 (31) nM.

As for “ISCNGVCSPFDIPPCGSPLCRCIPAGLVIGNCRNPY G (bicyclic or more) [Isoform 3, pea PA1b isoform (GenBank AJ574796) expressed in tobacco]”, the entries for the “TL50 WAA42” value in assay [1] (listed as 3) and in assay [1] (listed as isoform 3) were “no mortality” and “completely inactive”, respectively. Besides, the “TL50 ISOR3” value in assay [2] was “no mortality”. Further, the “CL50 Sf9” value in the assay on Sf9 insect cells (listed as 3) was >1500 nM; in the assay on Sf9 insect cells (listed as isoform 3), “completely inactive”.

For the substance “ASCNGVCSPFEMoxPPCGSSACRCIPVGLLIGYCRNPSG (bicyclic or more) [Isoform 1, pea PA1b isoform (GenBank AJ574795) expressed in N. benthamiana with the PA1-cassette]”, the “TL50 WAA42” value in assay [1] was 9.2+−0.9 days. Moreover, in assay [2], the “TL50 ISOR3” value is reported as “no mortality”. The “CL50 Sf9” value in the assay on Sf9 insect cells is on record as 82 (24) nM.

“ASCNGVCSPFEMoxPPCGSSACRCIPVGLVVGYCRHPSG (bicyclic or more) [Isoform 4, pea PA1b isoform (GenBank M13790 and AJ276882) expressed in tobacco]”: the “TL50 WAA42” value is 12.9+−1.1 days in assay [1] (listed as 4) and 12.9 ± 1.1 days in assay [1] (listed as isoform 4). The “TL50 ISOR3” value in assay [2] is reported as “no mortality”. Besides, the “CL50 Sf9” value in the assay on Sf9 insect cells is 269 ± 50 nM.

For the substance “ASCNGVCSPFEMoxPPCGTSACRCIPVGLFIGYCRNPSG (bicyclic or more) [Isoform 2.1, pea PA1b isoform 2 (GenBank AJ574794), oxidized Met form, expressed in tobacco]”, the “TL50 WAA42” value in assay [1] was 9.5+−0.7 days. Further, the “TL50 ISOR3” value in assay [2] was “no mortality”. In addition, the “CL50 Sf9” value in the assay with Sf9 insect cells is given as 82 (36) nM.

Regarding “ASCNGVCSPFEMoxPPCGTSACRCIPVGLVIGYCRNPSG (bicyclic or more) [Isoform 6, pea PA1b isoform (GenBank AJ574793) expressed in tobacco]”, the “TL50 WAA42” value in assay [1] is recorded as 8.9+−0.7 days. Also, the “TL50 ISOR3” value in assay [2] is “no mortality”. Moreover, in the assay with Sf9 insect cells, the “CL50 Sf9” value is on record as 96 (22) nM.
